Data set [1] deals with Staphylococcus aureus. As to the kind of experiment: Antibacterial activity against Staphylococcus aureus ATCC 29213 by broth liquid microdilution method. It counts as functional.
Data set [2] deals with Staphylococcus aureus. Briefly: Antibacterial activity against methicillin-resistant Staphylococcus aureus by broth liquid microdilution method. It counts as functional. In general terms: Broth dilution looks for growth in wells or tubes with falling amounts of substance.
For data set [3], the system named is Staphylococcus aureus. Briefly: Antibacterial activity against methicillin-sensitive Staphylococcus aureus by broth liquid microdilution method. Type of data set: functional.
In data set [4] the test system is Enterococcus faecalis. Briefly: Antibacterial activity against linezolid-resistant Enterococcus faecalis by broth liquid microdilution method. Type of data set: functional.
Data set [5] has as its system Enterococcus faecium. Briefly: Antibacterial activity against vancomycin-resistant Enterococcus faecium by broth liquid microdilution method. It counts as functional.
The test system of data set [6] is Staphylococcus aureus. As to the kind of experiment: Antibacterial activity against clinical isolates of methicillin-resistant Staphylococcus aureus by broth liquid microdilution method. It counts as functional.
Data set [7] deals with Staphylococcus aureus. As to the kind of experiment: Antibacterial activity against clinical isolates of methicillin-sensitive Staphylococcus aureus by broth liquid microdilution method. It counts as functional.
Data set [8] concerns Enterococcus faecalis. Briefly: Antibacterial activity against clinical isolates of linezolid-resistant Enterococcus faecalis by broth liquid microdilution method. It counts as functional.
For data set [9], the system named is Enterococcus faecium. As to the kind of experiment: Antibacterial activity against clinical isolates of vancomycin-resistant Enterococcus faecium by broth liquid microdilution method. Type of data set: functional.
In data set [10] the test system is Enterococcus faecalis. Briefly: Potency index, ratio of linezolid MIC to compound MIC for clinical isolates of linezolid-resistant Enterococcus faecalis. It counts as functional.
The test system of another data set is HepG2. Briefly: Cytotoxicity against human HepG2 cells after 48 hrs by MTT assay. Type of data set: cell-based. The settings on record: HepG2, 48 h.
The target in another data set is T1, MAO-A (Homo sapiens, UniProt P21397).
T1 sequence (P21397 whole entry): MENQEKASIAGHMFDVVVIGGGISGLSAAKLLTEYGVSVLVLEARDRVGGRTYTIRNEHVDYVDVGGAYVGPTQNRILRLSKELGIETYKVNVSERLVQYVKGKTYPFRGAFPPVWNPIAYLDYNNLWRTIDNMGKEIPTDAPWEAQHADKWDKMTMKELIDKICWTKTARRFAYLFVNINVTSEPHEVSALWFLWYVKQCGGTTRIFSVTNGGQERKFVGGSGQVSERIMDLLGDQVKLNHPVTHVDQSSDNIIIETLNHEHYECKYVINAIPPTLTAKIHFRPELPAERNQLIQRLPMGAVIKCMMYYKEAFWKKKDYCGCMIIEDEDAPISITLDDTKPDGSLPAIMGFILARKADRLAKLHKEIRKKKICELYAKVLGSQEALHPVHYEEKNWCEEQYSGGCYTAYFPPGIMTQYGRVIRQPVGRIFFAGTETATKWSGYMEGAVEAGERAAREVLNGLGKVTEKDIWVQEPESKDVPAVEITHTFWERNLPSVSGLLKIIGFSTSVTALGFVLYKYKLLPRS
Briefly: Inhibition of recombinant human full length N-terminal FLAG-tagged MAO-A expressed in sf9 cells at 30 uM preincubated for 15 mins followed by substrate addition and measured after 60 mins by luminescence assay relative to control.

In data set [11] the test system is Staphylococcus aureus. Briefly: Potency index, ratio of radezolid MIC to compound MIC for Staphylococcus aureus ATCC 29213. It counts as functional.
In data set [12] the test system is Staphylococcus aureus. As to the kind of experiment: Potency index, ratio of radezolid MIC to compound MIC for methicillin-sensitive Staphylococcus aureus. It counts as functional.
For data set [13], the system named is Enterococcus faecalis. Briefly: Potency index, ratio of radezolid MIC to compound MIC for linezolid-resistant Enterococcus faecalis. Type of data set: functional.
The test system of data set [14] is Enterococcus faecium. As to the kind of experiment: Potency index, ratio of radezolid MIC to compound MIC for vancomycin-resistant Enterococcus faecium. Type of data set: functional.

In brackets after ≈: the same amount, converted by molar mass.

As to `CCOC(=O)CN1C(=O)/C(=C/c2ccc(-c3ccc(N4C[C@H](CNC(C)=O)OC4=O)cc3F)cc2)SC1=S`, the MIC in the data set with Staphylococcus aureus [1], in the data set with Staphylococcus aureus [2], against Staphylococcus aureus [3], with Enterococcus faecalis [4] and in the data set with Enterococcus faecium [5] was 1 µg/mL (≈ 1.79 µM) each time.
With `CCN(CC)CCCN1C(=O)/C(=C/c2ccc(-c3ccc(N4C[C@H](CNC(C)=O)OC4=O)cc3F)cc2)NC1=S`, the MIC with Staphylococcus aureus [1] was 0.125 µg/mL (≈ 0.22 µM); against Staphylococcus aureus [2], 0.125 µg/mL (≈ 0.22 µM); in the data set on Staphylococcus aureus [6] it was 0.125 to 0.5 µg/mL (≈ 0.22 to 0.881 µM); against Staphylococcus aureus [3], 0.125 µg/mL (≈ 0.22 µM); with Enterococcus faecalis [4] it was 0.125 µg/mL (≈ 0.22 µM); in the data set on Enterococcus faecium [5], 0.125 µg/mL (≈ 0.22 µM). Besides, the MIC fell in the range of 0.125 to 0.25 µg/mL (≈ 0.22 to 0.44 µM) with Staphylococcus aureus [7], 0.125 to 0.25 µg/mL (≈ 0.22 to 0.44 µM) against Enterococcus faecalis [8] and 0.25 to 0.5 µg/mL (≈ 0.44 to 0.881 µM) against Enterococcus faecium [9]. In addition, the Ratio in the data set on Enterococcus faecalis [10] is 64. The compound further showed an IC50 in the data set with HepG2 of 91 µM. In addition, the inhibition at 1 h, 30 µM on MAO-A turned out to be 98%.
Regarding `CC(=O)NC[C@H]1CN(c2ccc(-c3ccc(CNCc4cnn[nH]4)cc3)c(F)c2)C(=O)O1` [RADEZOLID], the MIC against Staphylococcus aureus [1], in the data set on Staphylococcus aureus [2], in the data set with Staphylococcus aureus [3], against Enterococcus faecalis [4] and with Enterococcus faecium [5] was 0.5 µg/mL (≈ 1.14 µM) in each case.
Turning to `CC(=O)NC[C@H]1CN(c2ccc(-c3ccc(/C=C4\NC(=S)N(C)C4=O)cc3)c(F)c2)C(=O)O1`, the MIC in the data set on Staphylococcus aureus [1], in the data set with Staphylococcus aureus [2], against Staphylococcus aureus [3], in the data set with Enterococcus faecalis [4] and with Enterococcus faecium [5] was 0.5 µg/mL (≈ 1.07 µM) in each case.
`CCN(CC)CCCN1C(=O)/C(=C/c2ccc(-c3ccc(N4C[C@H](CNC(C)=O)OC4=O)cc3F)cc2)SC1=S`: the MIC with Staphylococcus aureus [1], with Staphylococcus aureus [2], in the data set with Staphylococcus aureus [3], in the data set with Enterococcus faecalis [4] and against Enterococcus faecium [5] was 0.5 µg/mL (≈ 0.855 µM) in each case.
Take `CC(=O)NC[C@H]1CN(c2ccc(-c3ccc(/C=C4\SC(=S)N(C(C)C(=O)O)C4=O)cc3)c(F)c2)C(=O)O1` (stereo partly specified): the MIC against Staphylococcus aureus [1], against Staphylococcus aureus [2], in the data set on Staphylococcus aureus [3], against Enterococcus faecalis [4] and against Enterococcus faecium [5] was 1 µg/mL (≈ 1.84 µM) each time.
Take `CC(=O)NC[C@H]1CN(c2ccc(-c3ccc(/C=C4\NC(=S)N(CCCN5CCOCC5)C4=O)cc3)c(F)c2)C(=O)O1`: the MIC in the data set with Staphylococcus aureus [1], against Staphylococcus aureus [2], with Staphylococcus aureus [3], against Enterococcus faecalis [4] and with Enterococcus faecium [5] was 2 µg/mL (≈ 3.44 µM) in each case.
Regarding `CCN1C(=O)/C(=C/c2ccc(-c3ccc(N4C[C@H](CNC(C)=O)OC4=O)cc3F)cc2)NC1=S`, the MIC with Staphylococcus aureus [1], in the data set with Staphylococcus aureus [2], in the data set on Staphylococcus aureus [3], against Enterococcus faecalis [4] and against Enterococcus faecium [5] was 0.25 µg/mL (≈ 0.518 µM) each time.
For `CCN1C(=O)/C(=C/c2ccc(-c3ccc(N4C[C@H](CNC(C)=O)OC4=O)cc3F)cc2)SC1=S`, the MIC turned out to be 0.25 µg/mL (≈ 0.5 µM) in the data set with Staphylococcus aureus [1]; 0.25 µg/mL (≈ 0.5 µM) in the data set on Staphylococcus aureus [2]; 0.25 µg/mL (≈ 0.5 µM) with Staphylococcus aureus [3]; 0.5 µg/mL (≈ 1 µM) against Enterococcus faecalis [4]; 0.5 µg/mL (≈ 1 µM) in the data set with Enterococcus faecium [5].
As for `CC(=O)NC[C@H]1CN(c2ccc(-c3ccc(/C=C4\SC(=S)NC4=O)cc3)c(F)c2)C(=O)O1`, the MIC is 0.125 µg/mL (≈ 0.265 µM) against Staphylococcus aureus [1]; 0.125 µg/mL (≈ 0.265 µM) with Staphylococcus aureus [2]; 0.125 µg/mL (≈ 0.265 µM) in the data set on Staphylococcus aureus [3]; 0.125 µg/mL (≈ 0.265 µM) against Enterococcus faecalis [4]; 0.125 µg/mL (≈ 0.265 µM) against Enterococcus faecium [5]; 1 to 2 µg/mL (≈ 2.12 to 4.24 µM) against Staphylococcus aureus [7]. Further, the minimal inhibitory concentration (MIC) in the data set with Enterococcus faecalis [8] and against Enterococcus faecium [9] was 1 to 2 µg/mL (≈ 2.12 to 4.24 µM) in each case. In addition, the Ratio with Staphylococcus aureus [11], with Staphylococcus aureus [12], in the data set with Enterococcus faecalis [13] and with Enterococcus faecium [14] was 4 throughout. In the data set on HepG2, this compound registered an IC50 of 63.9 µM. Besides, the inhibition at 1 h, 30 µM on MAO-A is 99%.

The MIC is the lowest concentration that inhibits growth of the organism. Low values mean greater potency, high ones weaker potency. Usually IC50 stands for the concentration that gives 50% inhibition. The low end stands for higher potency, the high end for lower potency. Usually inhibition stands for the percentage by which the read-out fell short of the control.

These data come from ChEMBL document CHEMBL4371065, “Design and synthesis of biaryloxazolidinone derivatives containing a rhodanine or thiohydantoin moiety as novel antibacterial agents against Gram-positive bacteria” (Bioorg Med Chem Lett, 2019).
